Data set [1] concerns Human normal lung cells (TIG-3). Put plainly: Cytotoxicity test (free-LDH ratio), TIG-3. The class given is cell-based. The following applies: 48 hours; free-LDH ratio 50%; without DTT. The method, then: (§1) This was then cultured for 18 hours.
Data set [2] concerns human wild-type p21 promoter. As to the kind of experiment: p21 promoter-inducing activity (luciferase) in MFLL-9 cells. The data set is classed as cell-based. The method, then:
The HDAC inhibition activity in vivo was measured using p21 promoter-inducing activity as an index, as shown below. The MFLL-9 cells employed for the experiments stably maintained fusion genes of human wild-type p21 promoter and luciferase (Dr. B. Vogelstaein). Using phenol red-free DMEM medium comprising 10% FBS, cultivation was carried out in a steam-saturated incubator at 37° C. with 5% carbon dioxide. The MFLL-9 cells were plated at a density of 85,000 cells/well on a 96-well microtiter plate, each in 99 μl of the above-mentioned medium. These were then cultivated for six hours. One μl of test compound solution was added to each well, which was then cultured for another 18 hours.
The intensity of luminescence caused by the product of the enzyme reaction for intracellular luciferase expression was measured using Luc Lite (Packard BioScience Company). A group in which test compounds were not added was used as a negative control group. The values measured for this group were used as a standard. The activities for each concentration of added test compound were expressed relative to the above-mentioned standard value, 1.

Data set [3] has as its system human uterine cancer cells (HeLa). Put plainly: in vitro. The method, then:
(§2) Human normal lung cells (TIG-3) and human uterine cancer cells (HeLa) were used to test SCOP cytotoxicity. These TIG-3 and HeLa cells were cultured in a DMEM medium comprising 10% FBS at 37° C. in the presence of 5% carbon dioxide in a steam-saturated incubator. The TIG-3 and HeLa cells were plated in 100 μl/well of the above-described medium on a 96-well microtiter plate, at a density of 30,000 cells/well and 10,000 cells/well respectively. This was then cultured for 18 hours. Test compound solution diluted with medium was added to each well and culture was continued for another 48 hours.
(§3) 30 μl of supernatant from each well was transferred to another 96-well microtiter plate (A), and the remaining supernatant was discarded. 100 μl of 0.5% Triton-X/PBS was added to each well to lyse the cells, and 30 μl was then transferred to each respective well of another 96-well microtiter plate (B). 30 μl of LDH-Cytotoxic Test (Wako) substrate solution was added to each well of these 96-well microtiter plates A and B, causing a color reaction. Once the color reaction was sufficiently progressed, it was stopped by adding 60 μl of a quenching solution. Color intensity was measured at OD560 nm using a microplate reader (Softmax). [A/(A+B)] was calculated as the free-LDH ratio. […] The higher the activity value for cancer-cell-selective cell damage (LD50 for normal cells/LD50 for cancer cells), the more that cancer-cell-selective apoptosis was induced.

The target in the next data set is T1, human HDAC1 (Homo sapiens, UniProt Q13547).
T1 construct: FLAG; made in house; host or cells: 293T cells (transient transfection, anti-FLAG immunoprecipitation, FLAG peptide elution)
Put plainly: In vitro HDAC inhibition activity, [3H]-acetylated histone substrate, HDAC1. The data set is classed as biochemical. The method, then: (§4) To measure HDAC inhibition activity, an HDAC solution was prepared as described below. 1×10^7 of 293T cells were plated on to a 100-mm dish and, after 24 hours, transfected with vectors (1 μg) expressing human HDAC1 and HDAC4 or mouse HDAC6, using LipofectAmine 2000 reagent (Life Technologies, Inc. Gaithersburg, Md.). […] The vectors were introduced for five hours in OPTI-MEM. The medium was then replaced with Dulbecco's modified Eagle's medium (DMEM), and incubated for 19 hours. The cells were washed with PBS, suspended in lysis buffer (50 mM Tris-HCl (pH7.5), 120 mM NaCl, 5 mM EDTA, and 0.5% Nonidet P-40), and sonicated. The supernatant was collected by centrifugation and nonspecific protein was removed using Protein A/G plus agarose beads (Santa Cruz Biotechnologies, Inc.). Anti-FLAG M2 antibodies (Sigma-Aldrich, Inc.) were added to the supernatant of cells expressing HDAC1 or HDAC4. Anti-HA antibodies (clone 3F10, Roche Molecular Biochemicals) were added to the supernatant of cells expressing HDAC6. Reaction in the respective mixtures was carried out at 4° C. for one hour. The resulting reaction mixtures were independently mixed with agarose beads and further reacted at 4° C. for one hour. The agarose beads were washed three times with lysis buffer and then washed once with HD buffer (20 mM Tris-HCl (pH8.0), 150 mM NaCl, 10% glycerol, and a complete protease inhibitor cocktail (Boehringer Mannheim, Germany)). […] The HDAC reaction solution was used for determining HDAC inhibition activity as shown below.
(§5) In vitro HDAC inhibition activity was evaluated as follows: A test compound was dissolved in DMSO and adjusted to 10 mM. This was used as an inhibitor stock solution. […] These reactions were stopped by adding 10 μl HCl. The [^3H] acetic acid excised by the enzyme reaction was extracted with ethyl acetate and subjected to radioactive dose measurement. As a negative control, the same procedure was carried out in which no inhibitor was added to the reaction system. The inhibition activity was expressed as a 50% inhibition concentration (“IC50 (nM)”) of the HDAC activity in the negative control (Tables 1 to 4).

Data set [4] is described as follows: Cytotoxicity test (free-LDH ratio), TIG-3. The data set is classed as cell-based. The conditions noted are these: human, TIG-3 human normal lung cells, LD50 (nM) TIG-3. As for the experimental part: as §1
For the next data set, the target named is T2, human HDAC4 (Homo sapiens, UniProt P56524).
T2 construct: FLAG; made in house; host or cells: 293T cells (transient transfection, anti-FLAG immunoprecipitation, FLAG peptide elution)
Put plainly: In vitro HDAC inhibition activity, [3H]-acetylated histone substrate, HDAC4. The data set is classed as biochemical. As for the experimental part: as §4, §5

For a further data set, the target named is T3, mouse HDAC6 (Mus musculus, UniProt Q9Z2V5).
T3 construct: HA; made in house; host or cells: 293T cells (transient transfection, anti-HA immunoprecipitation, HA peptide elution)
T3 sequence (Q9Z2V5 1-1149): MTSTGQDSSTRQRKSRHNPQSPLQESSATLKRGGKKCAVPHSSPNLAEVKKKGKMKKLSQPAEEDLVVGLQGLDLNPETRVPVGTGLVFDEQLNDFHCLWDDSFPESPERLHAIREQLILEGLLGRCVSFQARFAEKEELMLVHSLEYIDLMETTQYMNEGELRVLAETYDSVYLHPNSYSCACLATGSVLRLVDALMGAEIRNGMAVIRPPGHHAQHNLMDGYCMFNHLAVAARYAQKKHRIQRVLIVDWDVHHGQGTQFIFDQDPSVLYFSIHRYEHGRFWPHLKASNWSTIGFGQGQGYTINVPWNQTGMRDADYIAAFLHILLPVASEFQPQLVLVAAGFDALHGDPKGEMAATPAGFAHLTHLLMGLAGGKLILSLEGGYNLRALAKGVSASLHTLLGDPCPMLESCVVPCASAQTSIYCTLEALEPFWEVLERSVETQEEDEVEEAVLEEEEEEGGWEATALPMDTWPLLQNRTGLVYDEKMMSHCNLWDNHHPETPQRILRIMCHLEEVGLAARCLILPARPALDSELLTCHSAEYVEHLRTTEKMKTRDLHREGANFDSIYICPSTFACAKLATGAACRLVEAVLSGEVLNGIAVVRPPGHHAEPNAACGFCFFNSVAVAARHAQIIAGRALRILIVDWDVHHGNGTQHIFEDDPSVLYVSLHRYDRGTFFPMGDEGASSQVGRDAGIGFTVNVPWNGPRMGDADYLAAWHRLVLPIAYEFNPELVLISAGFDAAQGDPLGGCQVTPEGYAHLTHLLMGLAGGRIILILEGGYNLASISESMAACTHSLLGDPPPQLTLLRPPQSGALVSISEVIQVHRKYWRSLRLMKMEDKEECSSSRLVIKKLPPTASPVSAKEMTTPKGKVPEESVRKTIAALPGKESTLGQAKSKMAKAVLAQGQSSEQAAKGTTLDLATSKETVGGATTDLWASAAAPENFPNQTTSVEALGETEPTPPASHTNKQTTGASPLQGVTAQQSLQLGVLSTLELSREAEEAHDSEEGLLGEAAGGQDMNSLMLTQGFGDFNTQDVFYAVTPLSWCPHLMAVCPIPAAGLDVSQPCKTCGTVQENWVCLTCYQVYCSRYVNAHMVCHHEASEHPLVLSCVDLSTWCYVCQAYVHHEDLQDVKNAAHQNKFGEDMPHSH
Put plainly: In vitro HDAC inhibition activity, [3H]-acetylated histone substrate, HDAC6. The data set is classed as biochemical. As for the experimental part: as §4, §5

Another data set can be described thus: in vitro. The following applies: human, Cancer-Cell-Selective Cytotoxicity. As for the experimental part: as §2, §3
A short description of data set [5]: Stability in serum (FCS), read out by p21 promoter inducing activity. The data set is classed as in vitro ADME. As for the experimental part: The stability of SCOP 152, SCOP 304, and SCOP 402 in serum was evaluated by the method shown below: 1 μl of 10 mM SCOP 152, SCOP 304, and SCOP 402 was added to 99 μl FCS, and incubated at 37° C. Each hour, NaCl in a sufficient amount for saturation and 1 ml of ethyl acetate were added to each mixture. After extraction, from 800 μl of the ethyl acetate phase, the ethyl acetate was distilled off, and then 100 μl of DMSO was added to the residue. The resulting solution was further diluted ten times with DMSO and used to measure p21 promoter inducing activity. Activity at incubation time zero was taken as 100%, and activities were compared (FIG. 7).

[6] abbreviates: Table 1, X = H (coexisting with DTT).

*1 amine or outer side, *2 acyl side, *3 side chain or, on linkers, in order; H or OH if unused. Where a SMILES comes first, the peptide text is derived from it. Bridges are numbered along the chain shown (N, C = ends). Roman numbers before positions name the chains, in order. [ ]: non-standard residue; d: D form. hNle(7-SH) = O=C([C@H](CCCCCS[*:3])N[*:1])[*:2]; Gly((CH2)5SH) = N[C@@H](CCCCCS)C(=O)O

T2 sequence (O15379 whole entry partner): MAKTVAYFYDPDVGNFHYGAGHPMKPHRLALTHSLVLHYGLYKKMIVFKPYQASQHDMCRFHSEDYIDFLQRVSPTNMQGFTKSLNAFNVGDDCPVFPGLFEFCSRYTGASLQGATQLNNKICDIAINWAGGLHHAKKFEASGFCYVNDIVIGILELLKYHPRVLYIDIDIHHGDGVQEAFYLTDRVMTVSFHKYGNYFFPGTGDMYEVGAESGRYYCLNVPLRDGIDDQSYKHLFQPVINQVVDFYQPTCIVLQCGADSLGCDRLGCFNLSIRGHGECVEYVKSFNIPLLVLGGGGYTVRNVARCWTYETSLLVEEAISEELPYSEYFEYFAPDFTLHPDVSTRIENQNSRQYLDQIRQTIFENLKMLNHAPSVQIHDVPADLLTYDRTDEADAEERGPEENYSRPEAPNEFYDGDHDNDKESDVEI
T2 sequence (P56524 whole entry): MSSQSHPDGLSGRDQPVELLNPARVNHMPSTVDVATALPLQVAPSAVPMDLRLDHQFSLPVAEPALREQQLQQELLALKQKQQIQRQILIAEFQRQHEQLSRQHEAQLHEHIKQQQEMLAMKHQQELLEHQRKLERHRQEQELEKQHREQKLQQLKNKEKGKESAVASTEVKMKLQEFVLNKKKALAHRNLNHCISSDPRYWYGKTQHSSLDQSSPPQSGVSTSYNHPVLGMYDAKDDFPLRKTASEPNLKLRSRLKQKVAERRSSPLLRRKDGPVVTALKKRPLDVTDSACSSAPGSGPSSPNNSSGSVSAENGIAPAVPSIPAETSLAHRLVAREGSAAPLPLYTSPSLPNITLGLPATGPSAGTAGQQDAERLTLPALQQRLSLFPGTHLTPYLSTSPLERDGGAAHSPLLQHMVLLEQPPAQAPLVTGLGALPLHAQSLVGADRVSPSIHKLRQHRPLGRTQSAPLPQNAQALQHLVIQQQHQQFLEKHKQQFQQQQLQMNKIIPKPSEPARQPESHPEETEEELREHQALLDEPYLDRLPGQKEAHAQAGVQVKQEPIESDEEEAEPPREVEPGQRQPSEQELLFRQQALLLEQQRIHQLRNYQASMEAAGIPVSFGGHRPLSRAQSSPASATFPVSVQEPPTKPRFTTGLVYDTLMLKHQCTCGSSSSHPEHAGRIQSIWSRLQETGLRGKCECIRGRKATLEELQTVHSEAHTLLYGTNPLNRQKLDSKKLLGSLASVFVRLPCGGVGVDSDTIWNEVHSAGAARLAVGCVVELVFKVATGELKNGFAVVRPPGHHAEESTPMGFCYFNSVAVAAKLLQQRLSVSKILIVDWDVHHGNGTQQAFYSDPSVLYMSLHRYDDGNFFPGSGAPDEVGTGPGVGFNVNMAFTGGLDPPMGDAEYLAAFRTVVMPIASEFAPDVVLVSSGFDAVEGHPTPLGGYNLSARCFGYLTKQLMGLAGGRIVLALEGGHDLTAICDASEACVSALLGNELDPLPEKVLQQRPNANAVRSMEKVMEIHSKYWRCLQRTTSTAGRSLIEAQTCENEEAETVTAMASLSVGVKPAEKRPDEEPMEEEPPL
T1 sequence (Q13547 whole entry): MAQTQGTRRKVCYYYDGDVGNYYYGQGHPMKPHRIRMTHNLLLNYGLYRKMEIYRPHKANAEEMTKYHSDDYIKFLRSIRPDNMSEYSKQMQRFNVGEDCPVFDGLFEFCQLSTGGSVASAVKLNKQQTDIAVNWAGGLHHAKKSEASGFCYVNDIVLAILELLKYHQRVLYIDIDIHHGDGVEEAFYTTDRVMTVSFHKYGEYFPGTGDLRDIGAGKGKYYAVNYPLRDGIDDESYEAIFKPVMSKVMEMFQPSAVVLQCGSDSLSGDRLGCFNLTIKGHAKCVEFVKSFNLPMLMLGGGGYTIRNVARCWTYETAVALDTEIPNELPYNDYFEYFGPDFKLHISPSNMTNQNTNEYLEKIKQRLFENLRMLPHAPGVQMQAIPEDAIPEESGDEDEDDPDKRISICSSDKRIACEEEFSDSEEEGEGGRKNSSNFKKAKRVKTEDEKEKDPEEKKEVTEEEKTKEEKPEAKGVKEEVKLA

Turning to `CC(/C=C/C(=O)NO)=C\[C@@H](C)C(=O)c1ccc(N(C)C)cc1` [TSA, Tricostatin A, reference compound], in [1], the “LD50 (nM) TIG-3” value stood at 1580 nM. In addition, a half-maximal effect in data set [2] (Table 4, positive control) (EC50) was put at 445 nM. Further, in data set [3] (48 hours, free-LDH ratio 50%, without DTT), the “LD50 (nM) HeLa” value came to 41.4 nM.
For `CC[C@H](C)[C@@H]1NC(=O)[C@@H](Cc2ccc(OC)cc2)NC(=O)[C@H](CCCCCS)NC(=O)[C@H]2CCCN2C1=O` [SCOP 152] (cyclo([Gly((CH2)5SH)][dY](Me)I[dP])), the figures for the IC50 on human HDAC1 (setting [6]), on human HDAC4 (setting [6]) and against mouse HDAC6 (setting [6]) were 4.6 nM, 2.06 nM and 1400 nM, respectively. For the same compound, the half-maximal cytotoxic concentration (CC50) at 48 h in [4] amounted to 6780 nM. In addition, the half-maximal effective concentration (EC50) is 309 nM in [2] (Table 1, X = H (coexisting with DTT), 50% of maximum active value for TSA) and 3510 nM in [2] (Table 5, purified SCOP 152 under DTT-free conditions). In addition, the “LD50 (nM) HeLa” value in data set [3] (48 h) came to 370 nM. Besides, the selectivity ratio at 48 h in “in vitro” was 18.3.
As for `CC[C@H](C)[C@@H]1NC(=O)[C@@H](Cc2ccc(OC)cc2)NC(=O)[C@H](CCCCCSSCCCCC[C@@H]2NC(=O)[C@H]3CCCN3C(=O)[C@H]([C@@H](C)CC)NC(=O)[C@@H](Cc3ccc(OC)cc3)NC2=O)NC(=O)[C@H]2CCCN2C1=O` [SCOP 304, cyclo(-L-Am7(-)-D-Tyr(Me)-L-Ile-D-Pro-)] (I: cyclo([hNle(7-SH)][dY](Me)I[dP]) / II: cyclo([hNle(7-SH)][dY](Me)I[dP]); disulfide I:1-II:1), the IC50 on human HDAC1 (Table 2, homodimer) is 142 nM; against human HDAC4 (Table 2, homodimer), 145 nM; on mouse HDAC6 (Table 2, homodimer), more than 500000 nM. In addition, the EC50 in [2] (Table 2, homodimer) came out at 341 nM. The “Cancer-Cell-Selective Cytotoxicity” value in data set [3] (human, 48 h) was determined as 23.0. For the same compound, in the data set “in vitro”, the selectivity ratio at 48 h came to 25.2. Besides, in data set [5], the “Retention of activity in serum” value is recorded as “stably retain activity in serum for longer than SCOP 152”.

By EC50 is commonly meant the midpoint of the concentration-response curve. As usually defined, the IC50 is the midpoint of a concentration-inhibition curve. Higher therefore signals weaker potency in that assay. By CC50 is commonly meant the concentration at which the toxic effect on the cells reaches its halfway point.

The values are drawn from patent publication US7488712B2, “Histone deacetylase inhibitors and methods for producing the same” (Kyushu Institute of Technology, priority 2002, dated 2009).
